Tests used:
X4 strain (UG024) = assay: HIV RT activity in MDM infected with X4 strain; format: cell-based; settings: 8 days after infection
Procedure: (§1) Based upon their differential use of the major HIV co-receptors, HIV isolates have been referred to as R5, X4 or R5X4 strains, respectively (29). The M-tropic (macrophage-tropic) R5 prototype strains (Bal and ADA), dual tropic strain (89.6) and X4 primary isolate (UG024), were obtained from the NIH AIDS Reagent Program. Primary M-tropic isolates (BL-6 and CSF-6) were isolated from the blood and cerebrospinal fluid cells, respectively, of a subject with AIDS. […] The cells were also incubated with SP and/or anti-SP antibody. In this case, SP was incubated with (1:1000 dilution in 10% FCS DMEM) or without anti-SP antibody at room temperature for 10 min and then the mixture was added to the cell cultures for 2 h. When the cells were treated with the combination of CP-96,345 and SP, or CP-96,345, SP and anti-SP antibody, CP-96,345 was incubated with the cell culture for 10 min and then SP was added to the MDM or CP-96,345, SP and anti-SP (1:1000 in 10% FCS DMEM) were incubated for 10 min at room temperature and the mixture was incubated with the MDM for 2 h before infection with HIV. Untreated MDM served as controls. The cells were treated prior to, during, and throughout the infection. […]

[1] = tested on: luciferase-encoding HIV virions pseudotyped with ADA Env (CCR5-dependent); assay: Pseudotype reporter virus entry assay, ADA Env; format: cell-based
Procedure: (§2) Pseudotype reporter virus entry assay: Recombinant luciferase-encoding HIV virions pseudotyped with Env from the M-tropic ADA (CCR5-dependent) and amphitropic murine leukemia virus (MLV) (CCR5-independent) were used to study HIV infection of MDM incubated with or without CP-96,345 or R-113281. The Env-deleted luciferase reporter plasmid PNL-Luc-E-R+ (kindly provided by N. Landau) was cotransfected into 293T cells along with plasmids encoding the ADA or MLV Env genes as previously described (31). Supernatants were collected 48 h later, assayed for p24^Gag antigen content, and frozen at −80° C. MDM (2.5×10^5 cells/well, in 48-well plates) were incubated overnight with or without CP-96,345 or R-113281 and then infected using 20 ng of p24^Gag antigen equivalent of each pseudotype HIV per well, in the presence of polybrene (7.5 μg/ml). At 72 h postinfection, the cells were lysed in 150 μl of 0.5% Triton-X-100 in PBS. Lysate (50 μl) was mixed with an equal volume of luciferase substrate (Promega, […].) and luciferase activity was determined in a microtiter plate luminometer (Dynex Technologies, Chantilly, Va.). The results were expressed as relative light units (RLU) in CP-96,345-treated or R-113281-treated and infected MDM as a percentage of that in untreated and infected MDM.

[2] = tested on: luciferase-encoding HIV virions pseudotyped with MLV Env (CCR5-independent); assay: Pseudotype reporter virus entry assay, MLV Env; format: cell-based
Procedure: as §2

CCR5 = assay: Flow cytometry of CCR5 receptor expression on MDM; format: cell-based, human
Procedure: The cells were removed from the culture plate and then resuspended in 100 μl of phosphate-buffered saline (PBS). After incubation with 20 μl of either anti-CCR5-FITC or anti-CXCR4-FITC or anti-CD4-FITC or anti-CD14-FITC for 45 min at 4° C., the cells were washed twice with PBS and fixed with 1% paraformaldehyde in PBS. Fluorescein-conjugated control antibodies were isotype-matched IgG. Fluorescence was analyzed on an EPICS-Elite flow cytometer (Beckman-Coulter Electronics, Hialeah, Fla.).

R5X4 strain (89.6) = assay: HIV RT activity in MDM infected with R5X4 strain; format: cell-based; settings: 8 days after infection
Procedure: as §1

[3] = tested on: R5 strains (Bal, ADA, CSF-6 and BL-6); assay: HIV RT activity in MDM infected with R5 strains; format: cell-based; settings: 8 days after infection
Procedure: as §1

CCR5 mRNA = CCR5 mRNA expression in MDM by RT-PCR / real-time RT-PCR; format: cell-based, human; settings: for relative CCR5 mRNA level (real-time RT-PCR): 4 hours
Procedure: Total RNA was isolated from human peripheral blood MDM (10^6 cells) using Tri-Reagent (Molecular Research Center, Cincinnati, Ohio) as we previously reported (16).
Reverse transcription: Total RNA (1 μg) was reverse transcribed using Reverse Transcription System (Promega, Madison, Wis.) with the specific primers (antisense) for HIV gag (5′-[…]-[…]-3′; SEQ ID NO: 1) (27) or CCR5 (5′-[…]-3′; SEQ ID NO: 2) (32) for 1 h at 42° C. RT reactions was terminated by incubating the reaction mixture at 99° C. for 5 min and then kept at 4° C. The resulting cDNA was used as a template for PCR amplification or real time PCR quantification.
Polymerase chain reaction (PCR) analysis: PCR amplification of CCR5 and HIV gag cDNA was performed with one tenth of the cDNA for 35 cycles (CCR5) (32) or 40 cycles (gag) (27) using AmpliTaq Gold (Perkin ElmerCetus, Foster City, Calif.) in a GeneAmp PCR System 2400 (Perkin Elmer-Cetus). β-Actin was used as a control to monitor the amount and integrity of RNA in each sample (Clontech, Palo Alto, Calif.). Real time PCR was performed with one tenth of cDNA using ABI Prism 7700 Sequence Detection System (Perkin Elmer). The reaction mixture contained 0.25 mM of dNTPs, AmpliTaq Gold (1.5 U), 5 mM of MgCl2, 50 pmole of each of the two primers (SK38: 5′-[…]-3′(SEQ ID NO: 3); SK39: 5′-[…]-3′; SEQ ID NO: 4), 20 pmole of the molecular beacon probe (SK19: 5′[…]-3′; SEQ ID NO: 5) labeled with FAM (a fluorophore) at its 5′ end and DABCYL (a quencher) at the 3′end. The cycle conditions were 95° C. 10 min followed by 40 cycles of 95° C. 15 sec and 60° C. 1 min. The known amounts of HIV DNA isolated from ACH-2 cells were used as standard controls. All standards and samples were run in duplicates. HIV gag, CCR5, β-Actin primer pairs and the probe (SK19) were synthesized by Integrated DNA Technologies, Inc. (Coralville, Ind.).

[4] = R-113281 10^−7 and 10^−6 overnight pretreatment
[5] = CP-96,345 10^−8 and 10^−7 M overnight pretreatment

**Q.** What does the source list for `COc1cc(C(=O)N2CCO[C@](CCN3CCC4(CC3)c3ccccc3C[S@+]4[O-])(c3ccc(Cl)c(Cl)c3)C2)cc(OC)c1OC.Cl` [R-113281]?
**A.** replication of X4 strain (HIV RT activity) (X4 strain (UG024); R-113281 10^−6 M): not affected; ADA Env-pseudotyped HIV infection of MDM (luciferase activity) [1, 4]: inhibited; MLV-Env pseudotyped HIV infection of MDM (luciferase activity) [2, 4]: failed to block; CCR5 protein expression (percentage of CCR5 positive cells, flow cytometry) (CCR5; R-113281 10^−6 M, 24 hours): inhibited; replication of R5X4 strain (HIV RT activity) (R5X4 strain (89.6); R-113281 10^−6 M): inhibited to a lesser extent; replication of R5 strains (HIV RT activity) ([3]; R-113281 10^−6 M): inhibited; relative CCR5 mRNA level (real-time RT-PCR) (CCR5 mRNA; R-113281 10^−8 M to 10^−6 M): significantly down-regulated

**Q.** How did the “replication of X4 strain UG024 (HIV RT activity)” value (X4 strain (UG024); CP-96,345 10^−7M) turn out when `COc1ccccc1CN[C@H]1C2CCN(CC2)[C@H]1C(c1ccccc1)c1ccccc1` [CP-96,345, [2S,3S)-cis-2-(diphenylmethyl)-N-[(2-methoxyphenyl)-methyl]-1-azabicyclo [[2.2.2]-octan-3-amine]] was run?
**A.** not affected

**Q.** And the “ADA Env-pseudotyped HIV infection of MDM (luciferase activity)” value [1, 5]?
**A.** inhibited

**Q.** And the “MLV Env-pseudotyped HIV infection of MDM (luciferase activity)” value [2, 5]?
**A.** failed to block

**Q.** And the “CCR5 receptor expression on MDM (percentage positive cells)” value (CCR5; incubated overnight (24 h), direct immunofluorescence)?
**A.** down-regulated

**Q.** What about the “replication of R5X4 strain 89.6 (HIV RT activity)” value (R5X4 strain (89.6); CP-96,345 10^−7M) of the same compound?
**A.** inhibited to a lesser extent

**Q.** What about the “replication of R5 strains (HIV RT activity)” value ([3]; CP-96,345 10^−7M) of the same compound?
**A.** inhibited

**Q.** And the “CCR5 mRNA in MDM (RT-PCR)” value (CCR5 mRNA; 10^−8 to 10^−6M, 3 h)?
**A.** down-regulated

**Q.** And the “relative CCR5 mRNA level (real-time RT-PCR)” value (CCR5 mRNA; CP-96,345 10^−7 M to 10^−6 M)?
**A.** significantly down-regulated
